From the supplement of paper PMC10307832

Legend:
Test in all cases: relative viability (nuclei count vs DMSO), 5 days (fraction); higher = more cells survive
LOU-NH91 = tested on: LOU-NH91
Summary of the method: (§1)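 The day after seeding in 1536-well plates, lung cancer cell lines were treated by pin tool with a single drug, or with a fixed anchor-drug dose together with five library-drug doses (not always all listed) in √10 steps. After 5 days, a combined fix-and-stain solution (final 0.05% Triton X-100, 1% formaldehyde, 1 ug/ml Hoechst) was added. Nuclei counted on 4× images gave relative viability as treated counts over vehicle counts, reported as the median of duplicate plates.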

HCC-366 = tested on: HCC-366
Summary of the method: as §1

HCC-44 = tested on: HCC-44
Summary of the method: as §1

Calu-6 = tested on: Calu-6
Summary of the method: as §1

NCI-H1299 = tested on: NCI-H1299
Summary of the method: as §1

NCI-H1437 = tested on: NCI-H1437
Summary of the method: as §1

IA-LM = tested on: IA-LM
Summary of the method: as §1

NCI-H3122 = tested on: NCI-H3122
Summary of the method: as §1

NCI-H2085 = tested on: NCI-H2085
Summary of the method: as §1

EBC-1 = tested on: EBC-1
Summary of the method: as §1

A549 = tested on: A549
Summary of the method: as §1

NCI-H1703 = tested on: NCI-H1703
Summary of the method: as §1

CCN(CC)CCCCNc1ncc2cc(-c3cc(OC)cc(OC)c3)c(NC(=O)NC(C)(C)C)nc2n1 + CS(=O)(=O)CCNCc1ccc(-c2ccc3ncnc(Nc4ccc(OCc5cccc(F)c5)c(Cl)c4)c3c2)o1 [Lapatinib] (partner 2 µM) gave a relative viability (LOU-NH91; first compound 0.01 µM) of 0.664, a relative viability (LOU-NH91; first compound 0.03162 µM) of 0.746 and a relative viability (LOU-NH91; first compound 0.1 µM) of 0.824. It also gave a relative viability (LOU-NH91; first compound 0.3162 µM) of 0.885, a relative viability (LOU-NH91; first compound 1 µM) of 0.737 and a relative viability (HCC-366; first compound 0.01 µM) of 1.05. It also gave a relative viability (HCC-366; first compound 0.03162 µM) of 1.07, a relative viability (HCC-366; first compound 0.1 µM) of 1.73 and a relative viability (HCC-366; first compound 0.3162 µM) of 1.27. It also gave a relative viability (HCC-366; first compound 1 µM) of 1.06, a relative viability (HCC-44; first compound 0.01 µM) of 1.07 and a relative viability (HCC-44; first compound 0.03162 µM) of 1.05. The relative viability (HCC-44; first compound 0.1 µM) was 1.26, the relative viability (HCC-44; first compound 0.3162 µM) was 1.28 and the relative viability (HCC-44; first compound 1 µM) was 0.865. For the same molecule, the relative viability (Calu-6; first compound 0.01 µM) was 1.09, the relative viability (Calu-6; first compound 0.03162 µM) was 1.15 and the relative viability (Calu-6; first compound 0.1 µM) was 1.31. The relative viability (Calu-6; first compound 0.3162 µM) was 1.24, the relative viability (Calu-6; first compound 1 µM) was 1.02 and the relative viability (NCI-H1299; first compound 0.01 µM) was 1. For the same molecule, the relative viability (NCI-H1299; first compound 0.03162 µM) was 0.977, the relative viability (NCI-H1299; first compound 0.1 µM) was 0.995 and the relative viability (NCI-H1299; first compound 0.3162 µM) was 1.05. It also gave a relative viability (NCI-H1299; first compound 1 µM) of 0.912, a relative viability (NCI-H1437; first compound 0.01 µM) of 0.809 and a relative viability (NCI-H1437; first compound 0.03162 µM) of 0.841. For the same molecule, the relative viability (NCI-H1437; first compound 0.1 µM) was 0.906, the relative viability (NCI-H1437; first compound 0.3162 µM) was 0.909 and the relative viability (NCI-H1437; first compound 1 µM) was 0.653. It also gave a relative viability (IA-LM; first compound 0.01 µM) of 0.805, a relative viability (IA-LM; first compound 0.03162 µM) of 0.644 and a relative viability (IA-LM; first compound 0.1 µM) of 0.917. The relative viability (IA-LM; first compound 0.3162 µM) was 0.793, the relative viability (IA-LM; first compound 1 µM) was 1.05 and the relative viability (NCI-H3122; first compound 0.01 µM) was 0.997. It also gave a relative viability (NCI-H3122; first compound 0.03162 µM) of 1.04, a relative viability (NCI-H3122; first compound 0.1 µM) of 1.16 and a relative viability (NCI-H3122; first compound 0.3162 µM) of 1.07. It also gave a relative viability (NCI-H3122; first compound 1 µM) of 1, a relative viability (NCI-H2085; first compound 0.01 µM) of 0.791 and a relative viability (NCI-H2085; first compound 0.03162 µM) of 0.691. The relative viability (NCI-H2085; first compound 0.1 µM) was 0.828, the relative viability (NCI-H2085; first compound 0.3162 µM) was 0.85 and the relative viability (NCI-H2085; first compound 1 µM) was 0.68. For the same molecule, the relative viability (EBC-1; first compound 0.01 µM) was 0.228, the relative viability (EBC-1; first compound 0.03162 µM) was 0.231 and the relative viability (EBC-1; first compound 0.1 µM) was 0.209. The relative viability (EBC-1; first compound 0.3162 µM) was 0.217, the relative viability (EBC-1; first compound 1 µM) was 0.208 and the relative viability (A549; first compound 0.01 µM) was 1.11. It also gave a relative viability (A549; first compound 0.03162 µM) of 0.957, a relative viability (A549; first compound 0.1 µM) of 1.45 and a relative viability (A549; first compound 0.3162 µM) of 0.972. It also gave a relative viability (A549; first compound 1 µM) of 0.875, a relative viability (NCI-H1703; first compound 0.01 µM) of 0.912 and a relative viability (NCI-H1703; first compound 0.03162 µM) of 0.819. It also gave a relative viability (NCI-H1703; first compound 0.1 µM) of 1.3, a relative viability (NCI-H1703; first compound 0.3162 µM) of 1.35 and a relative viability (NCI-H1703; first compound 1 µM) of 0.774.

Molecule COc1nc(C)cnc1NS(=O)(=O)c1cccnc1-c1ccc(-c2nnco2)cc1 [Zibotentan] + CC(C)C[C@H](NC(=O)[C@H](Cc1ccccc1)NC(=O)c1cnccn1)B(O)O [Bortezomib] (partner 0.002 µM) has a relative viability (LOU-NH91; first compound 0.08 µM) of 0.469, a relative viability (LOU-NH91; first compound 0.253 µM) of 0.443 and a relative viability (LOU-NH91; first compound 0.8 µM) of 0.538. The relative viability (LOU-NH91; first compound 2.53 µM) was 0.815, the relative viability (HCC-366; first compound 0.08 µM) was 1.14 and the relative viability (HCC-366; first compound 0.253 µM) was 1.03. It also gave a relative viability (HCC-366; first compound 0.8 µM) of 0.795, a relative viability (HCC-366; first compound 2.53 µM) of 1.11 and a relative viability (HCC-44; first compound 0.08 µM) of 0.909. The relative viability (HCC-44; first compound 0.253 µM) was 0.894, the relative viability (HCC-44; first compound 0.8 µM) was 0.959 and the relative viability (HCC-44; first compound 2.53 µM) was 0.883. For the same molecule, the relative viability (Calu-6; first compound 0.08 µM) was 0.929, the relative viability (Calu-6; first compound 0.253 µM) was 0.888 and the relative viability (Calu-6; first compound 0.8 µM) was 1.02. The relative viability (Calu-6; first compound 2.53 µM) was 1.06, the relative viability (NCI-H1299; first compound 0.08 µM) was 0.999 and the relative viability (NCI-H1299; first compound 0.253 µM) was 0.998. The relative viability (NCI-H1299; first compound 0.8 µM) was 0.965, the relative viability (NCI-H1299; first compound 2.53 µM) was 1.08 and the relative viability (NCI-H1437; first compound 0.08 µM) was 0.486. It also gave a relative viability (NCI-H1437; first compound 0.253 µM) of 0.504, a relative viability (NCI-H1437; first compound 0.8 µM) of 0.454 and a relative viability (NCI-H1437; first compound 2.53 µM) of 0.53. The relative viability (IA-LM; first compound 0.08 µM) was 0.791, the relative viability (IA-LM; first compound 0.253 µM) was 0.758 and the relative viability (IA-LM; first compound 0.8 µM) was 0.709. For the same molecule, the relative viability (IA-LM; first compound 2.53 µM) was 0.828, the relative viability (NCI-H3122; first compound 0.08 µM) was 1.02 and the relative viability (NCI-H3122; first compound 0.253 µM) was 0.979. The relative viability (NCI-H3122; first compound 0.8 µM) was 0.992, the relative viability (NCI-H3122; first compound 2.53 µM) was 1.03 and the relative viability (NCI-H2085; first compound 0.08 µM) was 1.06. For the same molecule, the relative viability (NCI-H2085; first compound 0.253 µM) was 0.941, the relative viability (NCI-H2085; first compound 0.8 µM) was 1.07 and the relative viability (NCI-H2085; first compound 2.53 µM) was 1.14. It also gave a relative viability (EBC-1; first compound 0.08 µM) of 0.704, a relative viability (EBC-1; first compound 0.253 µM) of 0.566 and a relative viability (EBC-1; first compound 0.8 µM) of 0.584. For the same molecule, the relative viability (EBC-1; first compound 2.53 µM) was 0.592, the relative viability (NCI-H1703; first compound 0.08 µM) was 0.512 and the relative viability (NCI-H1703; first compound 0.253 µM) was 0.372. For the same molecule, the relative viability (NCI-H1703; first compound 0.8 µM) was 0.38 and the relative viability (NCI-H1703; first compound 2.53 µM) was 0.346.
